These results are taken from US10189859B2, “Derivatives of 6-(2,3-dichlorophenyl)-1,2,4-triazin-5-amine” (Nektar Therapeutics, priority 2013, dated 2019).

Values joined by “and” are separate entries in the source; they are usually repeats but may differ in a detail not shown here. Equal entries are not always repeated. Where two headings read alike, the source gives them in different places.

In general, ED50 refers to the dose at which the effect has come halfway, by size or by number of responders. Broadly, the IC50 is the concentration needed to halve the response being measured.

Series [1] is described as follows: Pharmacokinetics after intravenous or oral dosing, plasma LC/MS/MS. The class given is in vivo. The following applies: fasted male Sprague Dawley rats. As for the experimental part: Fasted, male Sprague Dawley rats were dosed intravenously or orally. Blood samples were collected at pre-determined time points and plasma was separated. Test article concentrations were determined in plasma by a LC/MS/MS method. Non compartmental analysis was performed to estimate the area under the plasma concentration vs. time curve (AUC). Clearance parameters (CL), bioavailabilities (F) and half-lives were calculated.

The next series relates to RR model. Put plainly: RR animal model. The format is in vivo. From the text:
(§1) The efficacy of the compounds when evaluated in additional well-known animal models, AFP, RR, and hyperalgesia, was also explored.

For another series, the system named is AFP model. Put plainly: AFP animal model. The class given is in vivo. The following applies: AFP, Ph 2, timepoint 0.25 h.
Excerpt: as §1

The subject of another series is Na+ channels. Nature of the series: Blockage of Na+ channels, whole-cell patch clamp, isolated dorsal root ganglion cells. The format is cell-based, rat. As for the experimental part:
Currents are measured using the whole-cell variant of the patch clamp method. INa is elicited by a pulse to −20 mV from a holding potential of −120 mV or −70 mV to measure blockade at the inactivated state (pulse duration of 40 ms), Peak inward current is measured for INa. Pacing rates of […] are examined. Increasing concentrations of test compounds are added to the cells in a cumulative manner to generate a concentration-response relationship which is utilized to calculate the IC50.
On the technique in general: Patch clamp records ionic current or voltage across a cell membrane.

Series [2] addresses Nav1.7 sodium channels (human SCN9A gene) (Homo sapiens (Human), UniProt Q15858). Nature of the series: Automated patch clamp (IonWorks Barracuda) of Nav1.7 stably expressed in CHO cells. The format is cell-based. The essentials:
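Whole-cell currents from CHO cells, holding −90 mV. Tonic block: 200 ms pre-pulse to −120 mV, step to 0 mV. Inactivated-state block: 20 ms at −100 mV then 20 ms at 0 mV. Percent block of peak inward Na+ current versus vehicle across concentrations gave IC50.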

Chain of Nav1.7 sodium channels (human SCN9A gene) (Q15858 whole entry): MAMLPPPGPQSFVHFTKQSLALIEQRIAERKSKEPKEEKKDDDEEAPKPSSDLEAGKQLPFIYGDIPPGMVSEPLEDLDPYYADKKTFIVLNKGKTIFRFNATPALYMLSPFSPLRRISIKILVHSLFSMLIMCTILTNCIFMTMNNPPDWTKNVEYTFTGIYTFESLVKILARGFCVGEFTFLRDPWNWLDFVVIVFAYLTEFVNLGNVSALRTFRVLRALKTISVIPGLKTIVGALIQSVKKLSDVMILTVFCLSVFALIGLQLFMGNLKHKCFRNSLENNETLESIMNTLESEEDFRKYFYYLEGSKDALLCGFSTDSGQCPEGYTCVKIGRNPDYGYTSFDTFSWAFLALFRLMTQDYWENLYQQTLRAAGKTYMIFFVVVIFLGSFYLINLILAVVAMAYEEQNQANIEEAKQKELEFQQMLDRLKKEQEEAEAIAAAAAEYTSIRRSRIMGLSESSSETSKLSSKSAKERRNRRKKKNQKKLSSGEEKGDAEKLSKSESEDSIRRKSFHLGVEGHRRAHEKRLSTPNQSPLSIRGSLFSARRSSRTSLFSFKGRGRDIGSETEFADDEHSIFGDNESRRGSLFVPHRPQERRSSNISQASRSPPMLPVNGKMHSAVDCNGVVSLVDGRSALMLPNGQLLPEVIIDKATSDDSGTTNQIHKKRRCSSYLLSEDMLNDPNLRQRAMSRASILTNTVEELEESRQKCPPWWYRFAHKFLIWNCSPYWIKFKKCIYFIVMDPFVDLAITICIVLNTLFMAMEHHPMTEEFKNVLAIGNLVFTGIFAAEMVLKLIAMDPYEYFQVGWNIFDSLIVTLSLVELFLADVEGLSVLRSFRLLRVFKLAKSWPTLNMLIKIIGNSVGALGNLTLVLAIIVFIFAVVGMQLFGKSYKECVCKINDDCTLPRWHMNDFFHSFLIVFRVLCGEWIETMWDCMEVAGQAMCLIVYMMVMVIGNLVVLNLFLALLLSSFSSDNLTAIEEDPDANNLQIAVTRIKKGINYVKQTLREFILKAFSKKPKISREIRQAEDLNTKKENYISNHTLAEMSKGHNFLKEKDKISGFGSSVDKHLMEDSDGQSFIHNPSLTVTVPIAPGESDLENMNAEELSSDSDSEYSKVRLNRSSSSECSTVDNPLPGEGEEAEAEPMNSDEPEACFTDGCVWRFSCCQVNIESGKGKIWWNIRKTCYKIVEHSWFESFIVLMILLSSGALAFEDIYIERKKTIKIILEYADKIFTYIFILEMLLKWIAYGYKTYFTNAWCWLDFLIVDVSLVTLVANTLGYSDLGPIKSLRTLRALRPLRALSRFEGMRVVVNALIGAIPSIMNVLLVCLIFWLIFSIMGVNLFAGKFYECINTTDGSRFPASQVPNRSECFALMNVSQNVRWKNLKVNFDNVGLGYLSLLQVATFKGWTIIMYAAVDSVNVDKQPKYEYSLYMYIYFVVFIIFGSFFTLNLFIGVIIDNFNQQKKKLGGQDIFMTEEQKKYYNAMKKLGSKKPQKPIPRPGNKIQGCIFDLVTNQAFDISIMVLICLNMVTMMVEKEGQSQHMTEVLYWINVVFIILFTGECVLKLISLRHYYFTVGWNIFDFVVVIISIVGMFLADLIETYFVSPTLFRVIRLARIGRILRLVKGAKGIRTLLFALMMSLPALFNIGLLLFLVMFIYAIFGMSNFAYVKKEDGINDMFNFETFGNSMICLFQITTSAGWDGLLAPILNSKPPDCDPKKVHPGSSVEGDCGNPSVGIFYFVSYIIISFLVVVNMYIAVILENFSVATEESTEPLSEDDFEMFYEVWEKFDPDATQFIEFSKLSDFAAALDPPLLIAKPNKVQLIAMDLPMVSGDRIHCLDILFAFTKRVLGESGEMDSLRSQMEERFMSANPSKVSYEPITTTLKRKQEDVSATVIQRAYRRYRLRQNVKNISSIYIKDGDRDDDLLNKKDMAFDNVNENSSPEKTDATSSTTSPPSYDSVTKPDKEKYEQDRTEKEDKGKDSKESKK

Turning to `Nc1nc(NCCOCCOC(F)(F)F)nnc1-c1cccc(Cl)c1Cl` [Compound 45, 6-(2,3-Dichlorophenyl)-N^3-(2-(2-(trifluoromethoxy)ethoxy)ethyl)-1,2,4-triazine-3,5-diamine], the “exposure after oral dosing (qualitative ranking)” value in series [1] is “best exposure after oral dosing”. Also, the ED50 in the series with RR model (0.5 h) was 21 mg/kg; in the series on RR model (1 h) it was 18.9 mg/kg; in the series on AFP model (read-out: ED50), 46.8 mg/kg. Further, the “MED” value in the series with RR model (timepoints 0.5, 1 h, minimum effective dose) stood at 30 mg/kg. Moreover, the “MED (mg/kg)” value in the series on AFP model (minimum effective dose) was 30 (Ph 2) mg/kg.
On to `COC[C@@H](O)CN1CCN(c2nnc(-c3cccc(Cl)c3Cl)c(N)n2)CC1` [Compound 97, (S)-1-(4-(5-amino-6-(2,3-dichlorophenyl)-1,2,4-triazin-3-yl)piperazin-1-yl)-3-methoxypropan-2-ol], for which, in series [1], the “pharmacokinetics (qualitative ranking of the compounds tested)” value is recorded as “most favorable pharmacokinetics”. Besides, in series [1], the “exposure after oral dosing (qualitative ranking)” value was “best exposure after oral dosing”. For the same compound, the IC50 in the series on Na+ channels (Vh −70 mV (inactivated state), pacing 0.1 Hz, read-out: IC50 (μM) 0.1 Hz) was 39.5 µM; in the series on Na+ channels (Vh −70 mV (inactivated state), pacing 3 Hz, read-out: IC50 (μM) 3 Hz) it was 21.5 µM; in the series on Na+ channels (Vh −70 mV (inactivated state), pacing 10 Hz, read-out: IC50 (μM) 10 Hz), 16.5 µM; in the series with Na+ channels (Vh −120 mV, pacing 0.1 Hz, read-out: IC50 (μM) 0.1 Hz), above 100 µM; with Na+ channels (Vh −120 mV, pacing 3 Hz, read-out: IC50 (μM) 3 Hz), above 100 µM; with Na+ channels (Vh −120 mV, pacing 10 Hz, read-out: IC50 (μM) 10 Hz), 74.4 µM. Also, the IC50 was 90.5 µM in series [2] (inactivated state block, CHO cells, read-out: Inactivated state IC50); < 50 µM and 82.2 µM in series [2] (read-out: Inactivated state IC50); above 200 µM in series [2] (read-out: Tonic state IC50).
